Measurements taken from the METLIN SMRT retention time set (Domingo-Almenara et al. 2019).

Assay: gradient 5% acetonitrile 3 min, to 50% in 2 min, to 85% in 15 min, held 3 min, 100 µL/min
Settings: column: Zorbax Extend-C18 2.1 x 50 mm; eluents: water / acetonitrile, 0.1% formic acid
Method in brief: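 Retention times come from adduct peaks that were picked computationally and then checked by hand. The standards, pure and pooled in mixtures of ~100 molecules, were run on a Zorbax Extend-C18 column (2.1 × 50 mm, 1.8 μm) at 100 μL/min with water and acetonitrile, each with 0.1% formic acid. Detection was by quadrupole time-of-flight mass spectrometry in positive and negative ionization mode, with a dead volume of 40 μL and a dwell volume of 900 μL.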

Row | Compound | RP-LC retention time
1 | Cc1nn(CC(=O)NCCc2ccco2)c(=O)c2c(-n3cccc3)n(-c3ccc(Cl)cc3)nc12 | 973 s
2 | CCNc1cc(C)nc(N2CCN(C(=O)CC)CC2)n1 | 567 s
3 | Cc1cccc(CNC(=O)CN2C(=O)CCc3cc(S(=O)(=O)N4CCCCC4C)ccc32)c1 (centres undefined) | 998 s
4 | CC1CCN(C(=O)c2cc3c(s2)CCC(C(=O)NCc2cccnc2)C3)CC1 (centres undefined) | 639 s
5 | COc1ccc(N2CCN(C(=O)c3ccc4c(c3)N(C)C(=O)C3CCCCN43)CC2)cc1 (centres undefined) | 832 s
6 | Cc1ccc(-c2nc(CN3CCCC3=O)no2)cc1 | 782 s
7 | CCCNc1cc(N2CCC(CCC(=O)NCc3ccc(OC)cc3)CC2)ncn1 | 657 s
8 | O=S(=O)(c1ccc(C(F)(F)F)cc1)N1CCCC(Cn2cnc3cccnc32)C1 (centres undefined) | 831 s
9 | O=C(Cc1cccs1)N1CCN(C(=O)c2cc3cc(Br)ccc3[nH]2)CC1 | 866 s
10 | CCC(=O)N1CCN(c2nc3c(s2)CC(C(=O)O)CC3)CC1 (centres undefined) | 578 s
11 | CCn1cc(-c2nc(C)c(C(=O)NCc3ccncc3)s2)c2cccnc21 | 616 s
12 | CC(C)(C)C1CCc2[nH]nc(C(=O)NC3CC3)c2C1 (centres undefined) | 843 s
13 | O=C(C1=CN(c2cccc(F)c2)c2ccccc2S1(=O)=O)N1CCOCC1 | 730 s
14 | O=C(Nc1ccc(F)c(F)c1)c1cc2n(n1)CCCC2 | 887 s
15 | CC(C(=O)N1CCCC1)C1CCN(C(=O)c2ccc3nc(-c4ccccc4)oc3c2)CC1 (centres undefined) | 818 s
16 | Cc1nn(Cc2ccc(C(=O)NCC3CC3)cc2)c(C)c1S(=O)(=O)N1CCC(C)CC1 | 888 s
17 | CC1CCN(C(=O)c2cn(-c3cc(-c4nc(C(C)(C)C)no4)ccn3)cn2)CC1 | 1060 s
18 | O=c1c(NCCc2ccc(Cl)cc2)nc2ccncc2n1Cc1ccccc1 | 766 s
19 | O=C(c1ccoc1)N1CCCC1c1nc(C2CCOCC2)no1 (centres undefined) | 670 s
20 | COC(=O)c1cc(OCC(=O)Nc2ccc(OC)c(Cl)c2)c2cc(OC)ccc2n1 | 867 s
21 | C=CCN1C(=O)COc2ccc(-c3nc(NC(=O)c4ccc(Cl)cc4)sc3C)cc21 | 1140 s

Row | Compound | RP-LC retention time
22 | CCN1CCCCc2cc(C(=O)NCCC3CCN(C(C)C)CC3)sc21 | 680 s
23 | O=C(Nc1nc2cccc(-c3ccc(CN4CCS(=O)(=O)CC4)cc3)n2n1)C1CC1 | 687 s
24 | O=C(Cn1nc2c(N3CCc4ccccc4C3)nccn2c1=O)Nc1ccccc1Cl | 896 s
25 | CCS(=O)(=O)c1nc2ccc(NS(=O)(=O)c3ccc(C4CCCCC4)cc3)cc2s1 | 1120 s
26 | CC1CCN(C(=O)CN(C)S(=O)(=O)c2ccc3c(c2)CCCC(=O)N3)CC1 | 713 s
27 | O=C(Cc1ccc(Cl)cc1)NCc1nc(-c2cccc(-c3csc(C4CC4)n3)c2)no1 | 1120 s
28 | Cn1c(N2CCN(C(=O)c3ccccc3Cl)CC2)cc(=O)n(C)c1=O | 622 s
29 | CCCCNC(=O)C1CCN(C(=O)Nc2ccc(NC(=O)NC3CCCC3)cc2)CC1 | 684 s
30 | CN(CC1(C)CCOCC1)C(=O)c1ccc2ccccc2n1 | 727 s
31 | O=C(NC1CCCC1)N1CCC[C@H]1c1nc(-c2ccccc2)n[nH]1 | 697 s
32 | C[C@H]1C[C@H]2[C@@H]3CCC4=CC(=O)C=C[C@]4(C)[C@H]3C(=O)C[C@]2(C)[C@@]1(O)C(=O)CO | 775 s
33 | CC(C)c1ccc(CNC(=O)C2CCc3nc(N4CCCC4)ncc3C2)cc1 (centres undefined) | 648 s
34 | CNc1nc(N(C)C)nc(N(C)C)n1 | 602 s
35 | COCC(=O)Nc1ccc2nc(-c3ccc(F)cc3)cc(OCC(=O)OC)c2c1 | 682 s
36 | O=C(CCNc1c(-c2cccc(F)c2)nc2cnccn12)N1CCOCC1 | 630 s
37 | Cc1cc(C)n(-c2ccnc(N3CCC(C(=O)NCCN4CCCCC4)CC3)n2)n1 | 601 s
38 | CCCCOC(=O)c1cccnc1 | 874 s
39 | O=S(=O)(Cc1ccc(Cl)cc1)N1CCc2nc(-c3ccccc3)ncc2C1 | 1090 s
40 | Cc1nnc(-c2cc(C)n(CC(=O)Nc3cccc(Cl)c3)c2C)o1 | 805 s
41 | CCNC(=O)c1ccc2c(c1)CCCN2S(=O)(=O)CC | 709 s
42 | O=C(Nc1ccc2c(c1)CN(C(=O)COc1ccccc1)CCO2)C1CC1 | 752 s

Row | Compound | RP-LC retention time
43 | CCOc1ccc(CNC(=O)C2CCN(S(=O)(=O)c3ccc4c(c3)CCCC(=O)N4)CC2)cc1 | 756 s
44 | CN(C(=O)CN1CCCn2nc(C(=O)O)cc2C1=O)c1ccccc1 | 627 s
45 | Cc1noc(-c2cc(=O)n(CC(=O)Nc3cc(Cl)ccc3C)c3ccccc23)n1 | 942 s
46 | CCc1cc(=O)n(CC(=O)NCc2ccc(Cl)cc2)c(N)n1 | 627 s
47 | Cc1cc(NCCCn2ccnc2)n2nc(C(F)(F)F)c(-c3ccccc3)c2n1 | 591 s
48 | C=CCNc1c(C(=O)OC)c(=O)[nH]c2c(Cl)cccc12 | 700 s
49 | CN(C)S(=O)(=O)Nc1cccc(Br)c1 | 898 s
50 | COC(=O)c1ncn2c1C(=O)N(Cc1cccc(C)c1)C(C)(C(=O)NCc1ccc(C)cc1)C2 (centres undefined) | 801 s
51 | O=C(NCc1ccc(F)cc1F)C1CCCN(c2nc3ccsc3c(=O)n2-c2ccc(F)cc2)C1 (centres undefined) | 885 s
52 | Cc1ccc(-n2c(=O)c3c(cc(C)n3C)n(CC(=O)Nc3ccc(F)cc3)c2=O)cc1 | 800 s
53 | CCCN1C(=O)COc2ccc(-c3noc(-c4cccc(C)c4)n3)cc21 | 1320 s
54 | O=C(Cc1csc2nc(-c3cccc(Br)c3)cn12)Nc1cccc(F)c1 | 1010 s
55 | C[C@@H]1C[C@H]2[C@@H]3C[C@H](F)C4=CC(=O)C(Cl)=C[C@]4(C)[C@@]3(F)[C@@H](O)C[C@]2(C)[C@@]1(O)C(=O)CO | 847 s
56 | CSc1cccc(NC(=O)N2CCN(C)CC2)c1 | 647 s
57 | Cc1nn(C)c(C)c1CCC(=O)N1CCN(S(C)(=O)=O)CC1 | 543 s
58 | FC1(c2nc(Cc3ccccc3)no2)CCN(Cc2ccsc2)CC1 | 708 s
59 | COc1ccc(C2(C(=O)Nc3cc(-c4ccsc4)no3)CC2)cc1 | 1030 s
60 | CCN1CCN(c2c(S(=O)(=O)c3ccc(Cl)cc3)cnc3cc4c(cc23)OCCO4)CC1 | 660 s
61 | CNC(=O)C1CC(=O)N(C2CCCCC2)C1 (centres undefined) | 609 s

Further lines, results first:

Row | RP-LC retention time | Compound
62 | 809 s | COc1ccccc1CNC(=O)c1cc(C)nn1-c1ccccc1
63 | 1030 s | Cc1oc2ccn(Cc3ccccc3F)c(=O)c2c1C(=O)NCc1cccs1
64 | 894 s | COC(=O)c1ccc(CSc2nnc(N3CCN(c4ccccc4OC)CC3)s2)o1
65 | 862 s | COC(=O)C1=CN(c2ccc(C)cc2)c2ccccc2S1(=O)=O
66 | 644 s | O=C(NCc1ccccn1)c1cccc2c1CCN2C(=O)c1ccc(F)cc1
67 | 712 s | O=C(Nc1ccccc1)N1CCC(n2c(-c3ccoc3)nc3cccnc32)C1 (centres undefined)
68 | 806 s | O=C(N[C@H](Cc1ccccc1)C(=O)NCc1cscn1)c1cccc(Cl)c1
69 | 995 s | Cc1nc(-c2cn(C(C)C)c3ncccc23)sc1C(=O)NCc1ccccc1
70 | 816 s | CCC(C)NC(=O)CCn1c(=O)c2ccccc2n2c(=O)n(Cc3cccc(F)c3)nc12 (centres undefined)
71 | 970 s | COCCn1cc(C(=O)Nc2cccc(F)c2)c2nn(-c3ccccc3)c(=O)c-2c1
72 | 564 s | CSc1ccccc1CN1CCC(CNC(=O)c2cc(=O)c3ccccc3o2)CC1
73 | 730 s | COc1ccccc1Nc1c(-c2ccc(C(=O)O)cc2)nc2cnccn12
74 | 959 s | Cc1ccnc(SCC(=O)Nc2nc(-c3ccccc3)c(-c3ccccc3)o2)n1
75 | 797 s | CCOC(=O)c1cccc(NC(=O)C2CCCN(c3nnc(C)c4c(C)n(-c5ccccc5)nc34)C2)c1 (centres undefined)
76 | 765 s | COc1ccc(-c2nc(Cn3cnc4ccccc4c3=O)no2)cc1OC
77 | 852 s | COC(=O)C1C(=O)C2=C(CC1C)Nc1ccccc1NC2c1ccc(Cl)cc1 (centres undefined)
78 | 961 s | COc1ccc(-n2ncc3c(=O)n(Cc4nc(-c5ccccc5)no4)cnc32)cc1
79 | 651 s | CCc1nnc2ccc(-c3noc(CNC(=O)c4ccccc4)n3)cn12
80 | 920 s | O=C([C@@H]1C[C@H](F)CN1S(=O)(=O)c1cccc(F)c1)N1CCc2ccccc2C1
81 | 867 s | Cc1nnc(-c2ccc3ccn(CC(=O)N4CCN(c5ccccc5F)CC4)c3c2)o1
82 | 913 s | Cc1ccc(NC(=O)Cn2c(=O)nc(N3CCC(C)CC3)c3ccccc32)c(C)c1
83 | 965 s | COc1cccc(C(C#N)N2N=C(C)CC2c2ccccc2)c1O (centres undefined)
84 | 649 s | O=C(NCCCn1c(-c2ccncc2)nc2cccnc21)NCCc1ccccc1
85 | 876 s | O=C(NCc1ccccc1OC(F)(F)F)c1ccc(OCC(=O)C2CC2)cc1
86 | 783 s | COc1ccc(C(=O)Nc2c(C(=O)Nc3ccccc3OC)oc3cccnc23)cc1
87 | 813 s | CCCn1nc(CNC(=O)c2cccc3[nH]ccc23)c2ccccc21
88 | 899 s | COC(=O)c1ccc(CN2C(=O)C(O)(c3ccccc3)c3ccccc32)cc1 (centres undefined)
89 | 744 s | CCOc1ccccc1CNC(=O)CCc1c(-c2ccc(Br)cc2)nc2ccccn12
